18 molecules from publication PMC9234963, “Optimizing Shape Complementarity Enables the Discovery of Potent Tricyclic BCL6 Inhibitors” (Journal of Medicinal Chemistry, 2022) can be followed below.

One data set deals with human BCL6 BTB domain (Homo sapiens, UniProt P41182). In words: biochemical. The note with it: for LE: ligand efficiency, 1.4*(pIC50)/HAC from TR-FRET; for LLE: lipophilic ligand efficiency from TR-FRET pIC50 and MoKa logD7.4; for BCL6 TR-FRET mean pIC50: mean of replicates. From the text:
6. Supplementary tables … S-17
Table S1: summary statistics and individual replicate values … S-17 […]
1. Supplementary experimental: protein production, purification and crystallography 1.1 BCL6 constructs used for assays and crystallography
A first construct of BCL6 BTB domain, which we will refer to as Trx-6His-HRV3C-BCL6, was obtained […]
3C protease cleavage site. For the TR-FRET assay, the Trx-6His-HRV3C-BCL6 protein construct was […]
used without cleaving the tag, as a 6His was needed to bind to the anti-6His-Terbium antibody. […]
For both plasmid constructs described above, transformed BL21-AI E. coli cells were grown in LB […]
carried out at 18 °C for 18 hours. Cells were harvested by centrifugation (5500 g for 30 minutes at 4 […]
oC) and stored at -80 °C.
2. Supplementary experimental: biological assay conditions
IC50 values were determined using […]
a sigmoidal four-parameter logistic fit equation.
Individual replicates shown in supplementary

Data set [1] can be described thus: HPLC kinetic solubility assay. Type of data set: physicochemical. The note with it: kinetic solubility by HPLC, 10 mM phosphate-buffered saline pH 7.4, 1% DMSO. On the procedure: 3.2 HPLC solubility assay
DMSO. Following shaking of the suspension on a Bohdan Shaker at 500 rpm for 2 hours at room […]
200 µL of the supernatant was transferred to a 2 mL Agilent vial containing 50 µL of DMSO (Sigma […]
detection using an external standard which was prepared by pipetting 10 µL of the same batch of […]
The detail of the HPLC method is as following: chromatographic separation at 30°C is carried out over a 5 minute gradient elution method from 90:10 to 10:90 water:methanol (both modified with 0.1% formic acid) at a flow rate of 1.5 mL/min. Calibration curve is prepared by injecting 0.5, 2.5, and 5 µL of compound external standard.
62.5 µL of compound solubility sample. […]

Data set [2] can be described thus: NMR kinetic solubility assay. Type of data set: physicochemical. To be noted: kinetic solubility by NMR, HEPES buffer pH 8, 4% DMSO. The method, then: 3. Supplementary experimental: physicochemical assays
The plate was then sealed and incubated at room temperature for 20 hours, without shaking. The plate was centrifuged again for 1 minute at […]
spectrometer equipped with a 5 mm TCI-CryoProbe. […]
deuterated solvent. […] All NMR data were acquired at the […]
contained 16k time-domain data points. Relaxation delay was set to 20 sec. Water signal was […]
The quantification of the compound concentration was carried out using MestReNova

Setting [3] is: BCL6 TR-FRET IC50 individual replicates, single replicates, 10 nM BCL6 for early examples, else 1 nM.
[4] abbreviates: BCL6 TR-FRET mean pIC50, mean of replicates.
Setting [5] is: read-out: BCL6 TR-FRET IC50, geometric mean of replicates.
The mark [6] stands for this setting: read-out: BCL6 TR-FRET IC50 individual replicates, single replicates, 10 nM BCL6 for early examples, else 1 nM.

Structures are written as SMILES. Several values for one entry are separate records, joined by “and”; a condition that tells them apart may be missing. Equal entries are not always repeated. Where two headings read alike, the source gives them in different places.

On to `CNC(=O)COc1cc2cc(Nc3nc(N4C[C@H](C)C[C@H](C)C4)ncc3Cl)ccc2n(C)c1=O` [BI-3802, reference compound], for which the IC50 (usually the concentration that inhibits the measured activity by half) on human BCL6 BTB domain (setting [3]) is 12 nM and 51 nM and 25 nM and 107 nM and 39 nM and 21 nM. On human BCL6 BTB domain (setting [4]), the IC50 is 33.1 nM. Besides, at human BCL6 BTB domain, the LE stood at 0.31 and the LLE is recorded as 3.98.

`CNC(=O)COc1cc2cc(Nc3nc(N4CCC(C(=O)N(C)C)CC4)ncc3Cl)cc(OC)c2n(C)c1=O` [BI-3812, reference compound]: the concentration for half-maximal inhibition (IC50) on human BCL6 BTB domain (setting [3]) was 3 nM; on human BCL6 BTB domain (setting [4]) it was 3.02 nM. At human BCL6 BTB domain, this molecule had an LE of 0.31. On human BCL6 BTB domain, this molecule returned an LLE of 6.76.

Take `CCNc1c(C)c(=O)n(C)c2ccc(Nc3ccnc(Cl)c3C#N)cc12` [Compound 4, 2-Chloro-4-((4-(ethylamino)-1,3-dimethyl-2-oxo-1,2-dihydroquinolin-6-yl)amino)nicotinonitrile]: the IC50 against human BCL6 BTB domain (setting [3]) was 6090 nM and 4590 nM and 6040 nM; on human BCL6 BTB domain (setting [5]), 5580 nM and 5600 nM; at human BCL6 BTB domain (setting [6]), 5570 nM and 5760 nM. In addition, at human BCL6 BTB domain, the “BCL6 TR-FRET mean pIC50” value was determined as 5.25.

Consider `N#Cc1c(Nc2ccc3[nH]c(=O)c4c(c3c2)NCCC4)ccnc1Cl` [Compound 5a, 2-Chloro-4-((5-oxo-1,2,3,4,5,6-hexahydrobenzo[h][1,6]naphthyridin-9-yl)amino)nicotinonitrile], for which the IC50 was 7060 nM and 6930 nM and 3890 nM and 7370 nM at human BCL6 BTB domain (setting [3]); 6120 nM and 6100 nM at human BCL6 BTB domain (setting [5]). Also, the “BCL6 TR-FRET mean pIC50” value at human BCL6 BTB domain is recorded as 5.21. Also, the “Aq. Sol” value in data set [1] amounted to 12 µM.

`CC1CCc2c(c3cc(Nc4ccnc(Cl)c4C#N)ccc3n(C)c2=O)N1` (centres unmarked) [Compound 5b, 2-Chloro-4-((2,6-dimethyl-5-oxo-1,2,3,4,5,6-hexahydrobenzo[h][1,6]-naphthyridin-9-yl)amino)nicotinonitrile]: the half-maximal inhibitory concentration (IC50) against human BCL6 BTB domain (setting [3]) is 1030 nM and 960 nM and 1460 nM and 1670 nM and 6960 nM and 4820 nM; at human BCL6 BTB domain (setting [5]), 2080 nM and 2100 nM. The “BCL6 TR-FRET mean pIC50” value at human BCL6 BTB domain is 5.68. Further, in data set [1], the “Aq. Sol” value was found to be 1.8 µM.

For the molecule `CC1COc2c(c3cc(Nc4ccnc(Cl)c4C#N)ccc3n(C)c2=O)N1` (centres unmarked) [Compound 6, 2-Chloro-4-((2,6-dimethyl-5-oxo-2,3,5,6-tetrahydro-1H-[1,4]oxazino[2,3-c]quinolin-9-yl)amino)nicotinonitrile], the IC50 against human BCL6 BTB domain (setting [3]) was 1110 nM and 1390 nM and 1530 nM; at human BCL6 BTB domain (setting [5]), 1330 nM and 1300 nM. Further, the “BCL6 TR-FRET mean pIC50” value on human BCL6 BTB domain is given as 5.88. Besides, in data set [1], the “Aq. Sol” value was 11 µM.

Turning to `C[C@H]1COCc2c(c3cc(Nc4ccnc(Cl)c4C#N)ccc3n(C)c2=O)N1` [Compound 8, (S)-2-Chloro-4-((2,7-dimethyl-6-oxo-1,2,3,5,6,7-hexahydro-[1,4]oxazepino[6,5-c]quinolin-10-yl)amino)nicotinonitrile], the half-inhibitory concentration (IC50) against human BCL6 BTB domain (setting [3]) is 2350 nM; on human BCL6 BTB domain (setting [5]) it was 2240 nM and 2200 nM; at human BCL6 BTB domain (setting [6]), 2190 nM and 2180 nM. The “BCL6 TR-FRET mean pIC50” value at human BCL6 BTB domain was found to be 5.65.

As to `C[C@H]1CCOc2c(c3cc(Nc4ccnc(Cl)c4C#N)ccc3n(C)c2=O)N1` [Compound 9a, (S)-2-Chloro-4-((2,7-dimethyl-6-oxo-1,2,3,4,6,7-hexahydro-[1,4]oxazepino-[2,3-c]quinolin-10-yl)amino)nicotinonitrile], the “Aq. Sol” value in data set [2] is 200^+ μM and 199 μM.

As for `C[C@@H]1CCOc2c(c3cc(Nc4ccnc(Cl)c4C#N)ccc3n(C)c2=O)N1` [Compound 9b, (R)-2-Chloro-4-((2,7-dimethyl-6-oxo-1,2,3,4,6,7-hexahydro-[1,4]oxazepino-[2,3-c]quinolin-10-yl)amino)nicotinonitrile], in data set [2], the “Aq. Sol” value was 190^+ μM.

As for `CCC1CCOc2c(c3cc(Nc4ccnc(Cl)c4C#N)ccc3n(C)c2=O)N1` (centres unmarked) [Compound 11b, 2-Chloro-4-((2-ethyl-7-methyl-6-oxo-1,2,3,4,6,7-hexahydro-[1,4]oxazepino[2,3-c]quinolin-10-yl)amino)nicotinonitrile], the IC50 against human BCL6 BTB domain (setting [3]) was 454 nM and 496 nM and 1020 nM; on human BCL6 BTB domain (setting [5]) it was 612 nM and 610 nM. Also, the “BCL6 TR-FRET mean pIC50” value on human BCL6 BTB domain came out at 6.21. The “Aq. Sol” value in data set [2] was 96 µM.

On to `Cn1c(=O)c2c(c3cc(Nc4ccnc(Cl)c4C#N)ccc31)NC(C1CCC1)CCO2` (centres unmarked) [Compound 11c, 2-Chloro-4-((2-cyclobutyl-7-methyl-6-oxo-1,2,3,4,6,7-hexahydro-[1,4]oxazepino[2,3-c]quinolin-10-yl)amino)nicotinonitrile], for which the IC50 at human BCL6 BTB domain (setting [3]) was 3570 nM and 5260 nM; at human BCL6 BTB domain (setting [5]) it was 4310 nM and 4300 nM; on human BCL6 BTB domain (setting [6]), 4270 nM. In addition, at human BCL6 BTB domain, the “BCL6 TR-FRET mean pIC50” value worked out at 5.37. Also, the “Aq. Sol” value in data set [2] came out at 26 µM.

In the case of `CC(C)C1CCOc2c(c3cc(Nc4ccnc(Cl)c4C#N)ccc3n(C)c2=O)N1` (centres unmarked) [Compound 11d, 2-Chloro-4-((2-isopropyl-7-methyl-6-oxo-1,2,3,4,6,7-hexahydro-[1,4]oxazepino[2,3-c]quinolin-10-yl)amino)nicotinonitrile], the IC50 was 2410 nM and 3460 nM and 3640 nM at human BCL6 BTB domain (setting [3]); 3120 nM and 3100 nM on human BCL6 BTB domain (setting [5]). Besides, at human BCL6 BTB domain, the “BCL6 TR-FRET mean pIC50” value is recorded as 5.51. Besides, the “Aq. Sol” value in data set [2] is 40 µM.

For the molecule `Cn1c(=O)c2c(c3cc(Nc4ccnc(Cl)c4C#N)ccc31)NC(C(F)F)CCO2` (centres unmarked) [Compound 11e, 2-Chloro-4-((2-(difluoromethyl)-7-methyl-6-oxo-1,2,3,4,6,7-hexahydro-[1,4]oxazepino[2,3-c]quinolin-10-yl)amino)nicotinonitrile], the half-maximal inhibitory concentration (IC50) on human BCL6 BTB domain (setting [3]) was 2150 nM and 1540 nM and 2500 nM; at human BCL6 BTB domain (setting [5]), 2020 nM and 2000 nM. Besides, the “BCL6 TR-FRET mean pIC50” value on human BCL6 BTB domain is listed as 5.69. Also, the “Aq. Sol” value in data set [2] was 119 µM.

As for `C[C@H]1C[C@H](C)Oc2c(c3cc(Nc4ccnc(Cl)c4C#N)ccc3n(C)c2=O)N1` [Compound 13a, 2-Chloro-4-(((2S,4S)-2,4,7-trimethyl-6-oxo-1,2,3,4,6,7-hexahydro-[1,4]oxazepino[2,3-c]quinolin-10-yl)amino)nicotinonitrile], in data set [2], the “Aq. Sol” value turned out to be 114 µM.

For `CC1CC(C)(C)Oc2c(c3cc(Nc4ccnc(Cl)c4C#N)ccc3n(C)c2=O)N1` (centres unmarked) [Compound 13b, 2-Chloro-4-((2,4,4,7-tetramethyl-6-oxo-1,2,3,4,6,7-hexahydro-[1,4]oxazepino[2,3-c]quinolin-10-yl)amino)nicotinonitrile], the half-inhibitory concentration (IC50) against human BCL6 BTB domain (BCL6 TR-FRET IC50, geometric mean of replicates) is above 9800 nM; against human BCL6 BTB domain (setting [3]), 8700 nM and 16500 nM and > 6600 nM. Further, in data set [2], the “Aq. Sol” value was found to be 12 µM.

With `CC1Nc2c(c(=O)n(C)c3ccc(Nc4ccnc(Cl)c4C#N)cc23)OCC1(C)C` (centres unmarked) [Compound 13c, 2-Chloro-4-((2,3,3,7-tetramethyl-6-oxo-1,2,3,4,6,7-hexahydro-[1,4]oxazepino[2,3-c]quinolin-10-yl)amino)nicotinonitrile], in data set [2], the “Aq. Sol” value came to 31 µM.

For `CC1Nc2c(c(=O)n(C)c3ccc(Nc4ccnc(Cl)c4C#N)cc23)OCC12CC2` (centres unmarked) [Compound 13d, 2-Chloro-4-((2′,7′-dimethyl-6′-oxo-1′,2′,6′,7′-tetrahydro-4′H-spiro[cyclopropane-1,3′-[1,4]oxazepino[2,3-c]quinolin]-10′-yl)amino)nicotinonitrile], the half-inhibitory concentration (IC50) on human BCL6 BTB domain (setting [3]) was 1070 nM and 2070 nM and 1870 nM; on human BCL6 BTB domain (setting [5]), 1590 nM and 1600 nM. In addition, at human BCL6 BTB domain, the “BCL6 TR-FRET mean pIC50” value stood at 5.8. Besides, the “Aq. Sol” value in data set [2] turned out to be 126 µM.

Turning to `Cn1c(=O)c2c(c3cc(Nc4ccnc(Cl)c4C#N)ccc31)N[C@H](C1CC1)C(F)(F)CO2` [Compound 14, (R)-2-Chloro-4-((2-cyclopropyl-3,3-difluoro-7-methyl-6-oxo-1,2,3,4,6,7-hexahydro-[1,4]oxazepino[2,3-c]quinolin-10-yl)amino)nicotinonitrile], the IC50 against human BCL6 BTB domain (setting [3]) is 615 nM and 397 nM; at human BCL6 BTB domain (setting [5]), 494 nM and 490 nM. Moreover, the “BCL6 TR-FRET mean pIC50” value on human BCL6 BTB domain was 6.31.
